The values below come from ChEMBL document CHEMBL5291721, “A preclinical secondary pharmacology resource illuminates target-adverse drug reaction associations of marketed drugs” (Nat Commun, 2023).

The target of test [1] is Muscarinic acetylcholine receptor M3 (Homo sapiens, UniProt P20309).
The target in test [2] is 5-hydroxytryptamine receptor 2A (Homo sapiens, UniProt P28223). Type of test: functional, cell-based.
In test [3] the target is T1, Muscarinic acetylcholine receptor M1 (Homo sapiens, UniProt P11229).
T1 sequence (P11229 whole entry): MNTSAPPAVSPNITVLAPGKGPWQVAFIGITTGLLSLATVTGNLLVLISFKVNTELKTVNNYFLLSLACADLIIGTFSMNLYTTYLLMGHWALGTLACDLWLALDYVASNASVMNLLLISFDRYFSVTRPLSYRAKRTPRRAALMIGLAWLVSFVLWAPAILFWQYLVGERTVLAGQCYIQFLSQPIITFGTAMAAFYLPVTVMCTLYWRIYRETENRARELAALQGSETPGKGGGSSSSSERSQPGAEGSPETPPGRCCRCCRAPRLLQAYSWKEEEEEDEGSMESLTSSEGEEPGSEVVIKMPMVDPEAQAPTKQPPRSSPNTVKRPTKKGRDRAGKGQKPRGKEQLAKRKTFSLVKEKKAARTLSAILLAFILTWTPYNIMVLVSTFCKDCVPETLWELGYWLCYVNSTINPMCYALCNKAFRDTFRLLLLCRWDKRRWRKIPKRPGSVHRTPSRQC
Type of test: functional.

Test [4] concerns the target T2, Androgen receptor (Rattus norvegicus, UniProt P15207).
T2 sequence (P15207 whole entry): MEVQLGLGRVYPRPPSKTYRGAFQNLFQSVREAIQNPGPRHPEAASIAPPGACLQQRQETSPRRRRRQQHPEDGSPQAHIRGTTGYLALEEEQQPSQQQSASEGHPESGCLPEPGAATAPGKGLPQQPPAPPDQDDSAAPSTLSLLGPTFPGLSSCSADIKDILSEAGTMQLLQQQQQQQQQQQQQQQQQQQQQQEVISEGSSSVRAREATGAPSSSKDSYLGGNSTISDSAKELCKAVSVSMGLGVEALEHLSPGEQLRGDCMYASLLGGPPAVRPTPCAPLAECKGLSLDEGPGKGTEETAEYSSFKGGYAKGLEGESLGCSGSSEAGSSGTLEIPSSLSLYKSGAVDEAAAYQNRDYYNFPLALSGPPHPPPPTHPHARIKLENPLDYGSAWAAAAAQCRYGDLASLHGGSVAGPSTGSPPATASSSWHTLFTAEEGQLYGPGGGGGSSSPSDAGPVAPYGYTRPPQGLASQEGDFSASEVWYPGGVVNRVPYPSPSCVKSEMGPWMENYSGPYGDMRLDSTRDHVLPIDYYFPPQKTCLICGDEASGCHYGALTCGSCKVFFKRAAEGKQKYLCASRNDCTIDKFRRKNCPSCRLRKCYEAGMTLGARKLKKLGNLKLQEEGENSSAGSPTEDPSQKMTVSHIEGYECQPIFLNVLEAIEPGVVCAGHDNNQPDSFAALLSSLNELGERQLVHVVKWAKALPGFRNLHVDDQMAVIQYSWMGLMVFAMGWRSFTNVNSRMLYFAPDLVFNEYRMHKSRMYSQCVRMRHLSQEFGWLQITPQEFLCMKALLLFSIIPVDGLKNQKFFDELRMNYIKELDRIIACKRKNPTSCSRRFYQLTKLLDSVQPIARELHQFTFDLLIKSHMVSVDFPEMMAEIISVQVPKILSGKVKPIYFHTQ

Test [5] concerns the target T3, Alpha-2B adrenergic receptor (Homo sapiens, UniProt P18089).
T3 sequence (P18089 whole entry): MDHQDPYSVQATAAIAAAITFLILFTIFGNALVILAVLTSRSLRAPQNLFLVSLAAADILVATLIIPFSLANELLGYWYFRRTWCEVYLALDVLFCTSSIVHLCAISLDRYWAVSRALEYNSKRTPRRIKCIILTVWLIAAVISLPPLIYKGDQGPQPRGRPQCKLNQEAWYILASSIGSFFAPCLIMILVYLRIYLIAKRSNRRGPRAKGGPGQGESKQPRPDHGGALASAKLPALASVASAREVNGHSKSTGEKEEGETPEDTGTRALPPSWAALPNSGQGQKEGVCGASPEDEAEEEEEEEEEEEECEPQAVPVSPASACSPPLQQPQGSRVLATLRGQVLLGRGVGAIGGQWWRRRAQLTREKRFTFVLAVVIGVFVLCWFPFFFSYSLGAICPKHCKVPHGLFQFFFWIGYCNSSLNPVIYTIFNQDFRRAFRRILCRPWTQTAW

For test [6], the target named is T4, Cannabinoid receptor 1 (Homo sapiens, UniProt P21554). Type of test: functional, cell-based.
T4 sequence (P21554 whole entry): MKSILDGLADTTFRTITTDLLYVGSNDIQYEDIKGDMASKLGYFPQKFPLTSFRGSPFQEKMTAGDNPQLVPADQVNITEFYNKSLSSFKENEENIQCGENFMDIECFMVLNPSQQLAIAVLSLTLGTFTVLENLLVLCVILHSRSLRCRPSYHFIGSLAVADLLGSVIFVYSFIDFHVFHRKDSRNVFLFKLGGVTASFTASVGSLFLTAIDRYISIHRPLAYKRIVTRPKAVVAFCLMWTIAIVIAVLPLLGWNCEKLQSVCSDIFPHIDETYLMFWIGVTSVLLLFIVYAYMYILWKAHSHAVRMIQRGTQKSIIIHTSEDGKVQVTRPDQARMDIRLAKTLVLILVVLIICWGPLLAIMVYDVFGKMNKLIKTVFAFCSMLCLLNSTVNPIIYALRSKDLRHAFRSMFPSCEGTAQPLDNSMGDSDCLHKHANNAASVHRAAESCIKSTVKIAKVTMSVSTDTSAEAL
Test [7] concerns the target T5, Estrogen receptor (Homo sapiens, UniProt P03372).
T5 sequence (P03372 whole entry): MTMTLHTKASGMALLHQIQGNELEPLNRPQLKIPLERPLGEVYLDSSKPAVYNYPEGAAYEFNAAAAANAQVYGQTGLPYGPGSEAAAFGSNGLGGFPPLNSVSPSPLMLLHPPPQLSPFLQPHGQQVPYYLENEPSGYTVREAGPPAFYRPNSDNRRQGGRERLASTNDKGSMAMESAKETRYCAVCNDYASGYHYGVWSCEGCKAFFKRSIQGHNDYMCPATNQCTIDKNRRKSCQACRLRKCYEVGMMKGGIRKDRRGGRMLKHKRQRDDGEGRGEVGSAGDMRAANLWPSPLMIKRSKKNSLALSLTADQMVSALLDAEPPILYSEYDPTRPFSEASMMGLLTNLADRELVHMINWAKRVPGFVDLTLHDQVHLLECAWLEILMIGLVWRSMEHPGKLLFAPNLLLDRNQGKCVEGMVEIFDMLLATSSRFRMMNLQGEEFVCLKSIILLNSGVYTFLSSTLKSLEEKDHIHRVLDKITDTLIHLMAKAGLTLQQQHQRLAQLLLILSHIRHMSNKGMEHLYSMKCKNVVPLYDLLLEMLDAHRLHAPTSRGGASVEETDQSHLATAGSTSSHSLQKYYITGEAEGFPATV

For test [8], the target named is T4, Cannabinoid receptor 1. The class given is functional, cell-based. This is another data set of the same source.
Test [9] has as its target Melanocortin receptor 4 (Homo sapiens, UniProt P32245).
Note: assay procedure not described here.

Chain of Melanocortin receptor 4 (P32245 whole entry): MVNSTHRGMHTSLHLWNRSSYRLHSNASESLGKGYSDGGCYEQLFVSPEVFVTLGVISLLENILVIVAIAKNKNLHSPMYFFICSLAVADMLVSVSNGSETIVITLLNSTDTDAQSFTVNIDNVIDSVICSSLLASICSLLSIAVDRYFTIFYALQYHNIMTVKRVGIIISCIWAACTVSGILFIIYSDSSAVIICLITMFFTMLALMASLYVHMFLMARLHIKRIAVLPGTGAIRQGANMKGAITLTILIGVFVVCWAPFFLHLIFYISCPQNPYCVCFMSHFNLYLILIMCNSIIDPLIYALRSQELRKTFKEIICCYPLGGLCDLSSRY
Chain of Muscarinic acetylcholine receptor M3 (P20309 whole entry): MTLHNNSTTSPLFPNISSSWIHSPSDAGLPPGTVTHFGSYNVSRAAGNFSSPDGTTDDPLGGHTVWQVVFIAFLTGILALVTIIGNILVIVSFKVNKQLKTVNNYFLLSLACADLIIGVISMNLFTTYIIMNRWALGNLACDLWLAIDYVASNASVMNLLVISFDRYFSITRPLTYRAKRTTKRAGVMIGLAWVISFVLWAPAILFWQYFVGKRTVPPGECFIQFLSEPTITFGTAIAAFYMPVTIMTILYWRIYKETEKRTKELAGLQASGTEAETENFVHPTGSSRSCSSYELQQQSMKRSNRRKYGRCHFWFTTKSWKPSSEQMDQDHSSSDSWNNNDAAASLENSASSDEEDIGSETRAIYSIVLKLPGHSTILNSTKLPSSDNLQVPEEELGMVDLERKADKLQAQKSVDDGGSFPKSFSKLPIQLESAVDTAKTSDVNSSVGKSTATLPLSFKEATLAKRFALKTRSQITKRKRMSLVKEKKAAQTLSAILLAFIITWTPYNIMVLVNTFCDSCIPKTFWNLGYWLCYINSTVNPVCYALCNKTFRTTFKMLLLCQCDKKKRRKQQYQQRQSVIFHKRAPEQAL
Chain of 5-hydroxytryptamine receptor 2A (P28223 whole entry): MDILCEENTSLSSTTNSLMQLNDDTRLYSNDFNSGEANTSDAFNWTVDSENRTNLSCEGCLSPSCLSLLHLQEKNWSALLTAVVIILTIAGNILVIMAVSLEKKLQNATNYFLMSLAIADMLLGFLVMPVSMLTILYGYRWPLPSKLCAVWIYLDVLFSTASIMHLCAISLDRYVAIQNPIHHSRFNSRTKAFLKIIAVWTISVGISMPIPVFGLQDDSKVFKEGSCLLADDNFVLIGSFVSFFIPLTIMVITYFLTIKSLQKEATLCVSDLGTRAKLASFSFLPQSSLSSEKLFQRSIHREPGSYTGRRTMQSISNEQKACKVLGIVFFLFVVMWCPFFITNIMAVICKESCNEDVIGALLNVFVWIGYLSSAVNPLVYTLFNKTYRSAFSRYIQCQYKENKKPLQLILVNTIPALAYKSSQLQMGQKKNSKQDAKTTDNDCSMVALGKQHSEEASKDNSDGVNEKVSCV

The AC50 is the concentration giving half of the maximal activity seen. Take `CC(=O)c1ccc(S(=O)(=O)NC(=O)NC2CCCCC2)cc1` [ACETOHEXAMIDE]: the AC50 was more than 30 µM in test [1]; more than 30 µM in test [2]; more than 10 µM in [3]; more than 10 µM in [4]; more than 10 µM in [5]; more than 30 µM in [6]. Also, the results for the AC50 in test [7], in test [8] and in test [9] were more than 10 µM, more than 30 µM and more than 10 µM, respectively.

For `COc1cc(C)c(/C=C/C(C)=C/C=C/C(C)=C/C(=O)O)c(C)c1C` [ACITRETIN], the AC50 in [1] is more than 30 µM; in [2], more than 10 µM; in test [3], more than 10 µM; in test [4], 4.6 µM; in test [5], more than 10 µM; in test [6], more than 30 µM. The concentration at half-maximal activity (AC50) is more than 30 µM in test [7], more than 30 µM in test [8] and more than 10 µM in test [9].

As to `CCC1(CCC(C)C)C(=O)NC(=O)NC1=O` [AMOBARBITAL], the AC50 in test [4] and in test [9] was more than 10 µM each time.

Regarding `Cc1cc(=O)n(-c2ccccc2)n1C` [ANTIPYRINE], the AC50 in test [4], in test [6], in test [7], in test [8] and in [9] was more than 30 µM in each case.

In the case of `O=C(O)c1ccc(NC(=O)[C@H](Cc2ccc(O)cc2)NC(=O)c2ccccc2)cc1` [BENTIROMIDE], the AC50 in test [1] is more than 30 µM; in [2], more than 10 µM; in test [3], more than 10 µM; in test [4], more than 10 µM; in test [5] it was more than 10 µM; in test [7] it was more than 10 µM. This compound also registered an AC50 in test [9] of more than 10 µM.

Regarding `CC(CN(C)C)C(C)(O)Cc1ccc(Cl)cc1` (centres undefined) [CLOBUTINOL], the AC50 was more than 30 µM in [1]; more than 10 µM in [3]; more than 30 µM in test [4]; more than 10 µM in [5]; more than 30 µM in test [6]; more than 30 µM in test [7]. Moreover, the AC50 in [8] and in [9] was more than 30 µM in each case.

Take `CCOC(=O)c1ncn2c1CN(C)C(=O)c1cc(F)ccc1-2` [FLUMAZENIL]: the values for the concentration at half-maximal activity (AC50) in test [4], in test [7] and in test [9] were more than 10 µM, more than 30 µM and more than 30 µM, respectively.

`O=C1Nc2ccc(Cl)cc2C(c2ccccc2Cl)=NC1O` (centres undefined) [LORAZEPAM]: the AC50 in test [4], in test [6], in test [7], in test [8] and in test [9] was more than 30 µM in each case.

In the case of `CC(=O)[C@H]1CC[C@H]2[C@@H]3C[C@H](C)C4=CC(=O)CC[C@]4(C)[C@H]3[C@@H](O)C[C@]12C` [MEDRYSONE], the AC50 is more than 30 µM in [1]; more than 10 µM in [2]; more than 10 µM in test [3]; 0.257 µM in [4]; more than 10 µM in test [5]; more than 30 µM in [6]. The AC50 in test [8] is more than 30 µM; in test [9] it was more than 10 µM.

Turning to `O=C(c1cc(Cc2n[nH]c(=O)c3ccccc23)ccc1F)N1CCN(C(=O)C2CC2)CC1` [OLAPARIB], the AC50 in test [1] is more than 30 µM; in [2], more than 10 µM; in test [3], more than 10 µM; in [4], more than 30 µM; in test [5] it was more than 10 µM; in test [7], more than 30 µM. The AC50 in test [9] is more than 30 µM.

For the compound `Fc1ccc([C@@H]2CCNC[C@H]2COc2ccc3c(c2)OCO3)cc1` [PAROXETINE], the AC50 in test [4], in test [7] and in [9] was more than 30 µM in each case.

Turning to `CCCN(CCC)S(=O)(=O)c1ccc(C(=O)O)cc1` [PROBENECID], the AC50 in [4] and in [9] was more than 10 µM each time.

Regarding `C=CC[N+]1([C@H]2C[C@H]3[C@@H]4CC[C@H]5C[C@H](O)[C@@H](N6CCOCC6)C[C@]5(C)[C@H]4CC[C@]3(C)[C@H]2OC(C)=O)CCCC1` [ROCURONIUM], the AC50 in test [1], in test [2], in test [3], in test [5], in [7] and in test [9] was more than 30 µM in each case.

Consider `CC(c1cc2ccccc2s1)N(O)C(N)=O` (centres undefined) [ZILEUTON], for which the AC50 in [4] is more than 30 µM; in test [6], more than 30 µM; in test [7] it was more than 30 µM; in [8], more than 30 µM; in test [9] it was more than 10 µM.
